Test results published in article PMC4770715, “LIM kinase inhibitors disrupt mitotic microtubule organization and impair tumor cell proliferation” (Oncotarget, 2015).

Columns and labels:
Assay in all cases: biochemical
Design in all cases: KINOMEscan active-site competition binding, percent of control (100 = no competition)
Details in all cases: competition binding, percent control
SRPK3 = SRPK3 (Homo sapiens, UniProt Q9UPE1)
FYN = FYN (Homo sapiens, UniProt P06241)
ANKK1 = ANKK1 (Homo sapiens, UniProt Q8NFD2)
[1] = target: T1, RPS6KA5(Kin.Dom.1-N-terminal) (Homo sapiens, UniProt O75582)
T1 construct: Kin.Dom.1-N-terminal

CSF1R = CSF1R (Homo sapiens, UniProt P07333)
OSR1 = target: T2, OSR1 (Homo sapiens, UniProt O95747)
T2 construct: gene OXSR1

[2] = target: T3, ABL1(H396P)-nonphosphorylated (Homo sapiens, UniProt P00519, H396P)
T3 construct: nonphosphorylated

CAMKK2 = CAMKK2 (Homo sapiens, UniProt Q96RR4)
STK36 = STK36 (Homo sapiens, UniProt Q9NRP7)
NLK = NLK (Homo sapiens, UniProt Q9UBE8)
MAST1 = MAST1 (Homo sapiens, UniProt Q9Y2H9)
MERTK = MERTK (Homo sapiens, UniProt Q12866)
CHEK1 = CHEK1 (Homo sapiens, UniProt O14757)
CLK4 = CLK4 (Homo sapiens, UniProt Q9HAZ1)
TGFBR2 = TGFBR2 (Homo sapiens, UniProt P37173)
DDR1 = DDR1 (Homo sapiens, UniProt Q08345)
HIPK4 = HIPK4 (Homo sapiens, UniProt Q8NE63)
PIM1 = PIM1 (Homo sapiens, UniProt P11309)
AMPK-alpha1 = target: T4, AMPK-alpha1 (Homo sapiens, UniProt Q13131)
T4 construct: gene PRKAA1

RIPK4 = RIPK4 (Homo sapiens, UniProt P57078)
HPK1 = target: T5, HPK1 (Homo sapiens, UniProt Q92918)
T5 construct: gene MAP4K1

RIOK1 = RIOK1 (Homo sapiens, UniProt Q9BRS2)
CLK1 = CLK1 (Homo sapiens, UniProt P49759)

NLK, sequence (Q9UBE8 whole entry): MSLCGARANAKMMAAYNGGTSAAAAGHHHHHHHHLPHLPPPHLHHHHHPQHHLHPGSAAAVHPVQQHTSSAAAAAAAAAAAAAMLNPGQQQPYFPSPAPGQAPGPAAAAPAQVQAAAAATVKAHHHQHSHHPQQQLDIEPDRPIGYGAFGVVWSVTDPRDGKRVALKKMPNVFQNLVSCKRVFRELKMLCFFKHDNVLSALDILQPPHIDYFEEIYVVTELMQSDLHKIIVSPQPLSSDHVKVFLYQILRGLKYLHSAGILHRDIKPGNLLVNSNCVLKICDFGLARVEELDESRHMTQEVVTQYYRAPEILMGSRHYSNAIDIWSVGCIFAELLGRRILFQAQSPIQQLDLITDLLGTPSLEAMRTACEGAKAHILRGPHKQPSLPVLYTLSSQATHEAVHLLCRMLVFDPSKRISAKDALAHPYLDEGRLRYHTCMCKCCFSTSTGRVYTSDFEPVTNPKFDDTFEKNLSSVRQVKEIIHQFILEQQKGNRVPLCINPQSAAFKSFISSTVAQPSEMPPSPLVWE
ANKK1, sequence (Q8NFD2 whole entry): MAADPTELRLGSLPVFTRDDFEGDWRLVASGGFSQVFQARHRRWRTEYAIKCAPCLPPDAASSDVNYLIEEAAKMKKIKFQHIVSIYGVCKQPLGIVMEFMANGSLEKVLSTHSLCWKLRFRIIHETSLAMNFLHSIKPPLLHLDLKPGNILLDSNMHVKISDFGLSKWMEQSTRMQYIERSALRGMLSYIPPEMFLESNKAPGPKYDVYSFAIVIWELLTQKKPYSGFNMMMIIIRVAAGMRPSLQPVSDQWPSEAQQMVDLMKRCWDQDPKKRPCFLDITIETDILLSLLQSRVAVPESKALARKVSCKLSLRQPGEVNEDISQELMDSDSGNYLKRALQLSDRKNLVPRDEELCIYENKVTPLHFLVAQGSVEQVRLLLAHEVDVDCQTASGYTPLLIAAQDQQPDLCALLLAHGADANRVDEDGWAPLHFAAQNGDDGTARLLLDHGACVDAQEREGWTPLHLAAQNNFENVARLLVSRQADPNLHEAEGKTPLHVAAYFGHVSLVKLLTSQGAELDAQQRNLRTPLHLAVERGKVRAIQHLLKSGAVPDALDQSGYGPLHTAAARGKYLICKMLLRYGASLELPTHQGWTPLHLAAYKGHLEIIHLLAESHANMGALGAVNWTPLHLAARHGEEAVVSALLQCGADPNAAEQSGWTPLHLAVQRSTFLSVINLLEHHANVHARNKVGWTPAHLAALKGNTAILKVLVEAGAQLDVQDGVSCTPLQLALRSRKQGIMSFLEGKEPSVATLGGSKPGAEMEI
T2 sequence (O95747 whole entry): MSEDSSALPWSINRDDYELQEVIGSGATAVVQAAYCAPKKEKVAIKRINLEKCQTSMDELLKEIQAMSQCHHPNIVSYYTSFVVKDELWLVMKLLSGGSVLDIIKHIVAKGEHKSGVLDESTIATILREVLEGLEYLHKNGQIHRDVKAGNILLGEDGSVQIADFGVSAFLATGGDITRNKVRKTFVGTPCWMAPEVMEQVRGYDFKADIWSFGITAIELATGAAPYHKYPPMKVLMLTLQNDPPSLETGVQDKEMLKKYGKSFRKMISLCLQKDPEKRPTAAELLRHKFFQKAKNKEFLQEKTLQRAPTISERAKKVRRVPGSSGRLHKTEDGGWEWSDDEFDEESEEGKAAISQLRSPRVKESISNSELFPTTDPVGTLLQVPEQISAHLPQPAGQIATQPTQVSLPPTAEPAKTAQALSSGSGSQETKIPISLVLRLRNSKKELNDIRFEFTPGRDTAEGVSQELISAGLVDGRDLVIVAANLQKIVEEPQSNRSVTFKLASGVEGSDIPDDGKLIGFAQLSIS
PIM1, sequence (P11309 whole entry): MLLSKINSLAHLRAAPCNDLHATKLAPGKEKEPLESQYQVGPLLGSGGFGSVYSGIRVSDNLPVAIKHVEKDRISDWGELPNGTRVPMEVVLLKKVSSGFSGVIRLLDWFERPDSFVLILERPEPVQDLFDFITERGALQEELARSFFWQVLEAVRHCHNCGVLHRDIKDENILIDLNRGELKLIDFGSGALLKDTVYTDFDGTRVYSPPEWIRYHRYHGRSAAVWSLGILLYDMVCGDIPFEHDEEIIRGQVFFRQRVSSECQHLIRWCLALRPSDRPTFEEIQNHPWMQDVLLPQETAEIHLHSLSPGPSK
MERTK, sequence (Q12866 whole entry): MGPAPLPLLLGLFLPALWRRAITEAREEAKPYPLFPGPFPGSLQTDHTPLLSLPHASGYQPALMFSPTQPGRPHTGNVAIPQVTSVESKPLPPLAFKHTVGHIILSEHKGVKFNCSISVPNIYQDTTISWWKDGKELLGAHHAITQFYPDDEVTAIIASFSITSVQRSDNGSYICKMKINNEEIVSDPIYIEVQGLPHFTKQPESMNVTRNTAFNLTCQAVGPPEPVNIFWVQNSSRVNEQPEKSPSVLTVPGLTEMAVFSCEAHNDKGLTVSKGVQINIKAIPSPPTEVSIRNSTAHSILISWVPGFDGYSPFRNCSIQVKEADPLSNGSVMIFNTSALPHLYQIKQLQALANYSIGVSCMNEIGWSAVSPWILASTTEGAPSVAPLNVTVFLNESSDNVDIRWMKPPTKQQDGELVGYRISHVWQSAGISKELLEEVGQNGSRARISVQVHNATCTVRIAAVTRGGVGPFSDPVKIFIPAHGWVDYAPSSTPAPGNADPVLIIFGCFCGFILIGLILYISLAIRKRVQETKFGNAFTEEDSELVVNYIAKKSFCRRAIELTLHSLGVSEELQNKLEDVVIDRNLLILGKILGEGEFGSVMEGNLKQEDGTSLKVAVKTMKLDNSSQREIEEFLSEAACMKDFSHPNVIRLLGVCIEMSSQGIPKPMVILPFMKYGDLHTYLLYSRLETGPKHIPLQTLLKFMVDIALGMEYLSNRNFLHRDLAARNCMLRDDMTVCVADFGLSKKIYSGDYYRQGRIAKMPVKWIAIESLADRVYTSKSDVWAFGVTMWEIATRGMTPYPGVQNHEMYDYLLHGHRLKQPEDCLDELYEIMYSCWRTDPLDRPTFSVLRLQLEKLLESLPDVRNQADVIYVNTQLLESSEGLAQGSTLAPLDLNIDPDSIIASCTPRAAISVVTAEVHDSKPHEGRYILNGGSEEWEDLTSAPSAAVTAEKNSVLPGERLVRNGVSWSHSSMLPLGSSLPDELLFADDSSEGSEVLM
STK36, sequence (Q9NRP7 whole entry): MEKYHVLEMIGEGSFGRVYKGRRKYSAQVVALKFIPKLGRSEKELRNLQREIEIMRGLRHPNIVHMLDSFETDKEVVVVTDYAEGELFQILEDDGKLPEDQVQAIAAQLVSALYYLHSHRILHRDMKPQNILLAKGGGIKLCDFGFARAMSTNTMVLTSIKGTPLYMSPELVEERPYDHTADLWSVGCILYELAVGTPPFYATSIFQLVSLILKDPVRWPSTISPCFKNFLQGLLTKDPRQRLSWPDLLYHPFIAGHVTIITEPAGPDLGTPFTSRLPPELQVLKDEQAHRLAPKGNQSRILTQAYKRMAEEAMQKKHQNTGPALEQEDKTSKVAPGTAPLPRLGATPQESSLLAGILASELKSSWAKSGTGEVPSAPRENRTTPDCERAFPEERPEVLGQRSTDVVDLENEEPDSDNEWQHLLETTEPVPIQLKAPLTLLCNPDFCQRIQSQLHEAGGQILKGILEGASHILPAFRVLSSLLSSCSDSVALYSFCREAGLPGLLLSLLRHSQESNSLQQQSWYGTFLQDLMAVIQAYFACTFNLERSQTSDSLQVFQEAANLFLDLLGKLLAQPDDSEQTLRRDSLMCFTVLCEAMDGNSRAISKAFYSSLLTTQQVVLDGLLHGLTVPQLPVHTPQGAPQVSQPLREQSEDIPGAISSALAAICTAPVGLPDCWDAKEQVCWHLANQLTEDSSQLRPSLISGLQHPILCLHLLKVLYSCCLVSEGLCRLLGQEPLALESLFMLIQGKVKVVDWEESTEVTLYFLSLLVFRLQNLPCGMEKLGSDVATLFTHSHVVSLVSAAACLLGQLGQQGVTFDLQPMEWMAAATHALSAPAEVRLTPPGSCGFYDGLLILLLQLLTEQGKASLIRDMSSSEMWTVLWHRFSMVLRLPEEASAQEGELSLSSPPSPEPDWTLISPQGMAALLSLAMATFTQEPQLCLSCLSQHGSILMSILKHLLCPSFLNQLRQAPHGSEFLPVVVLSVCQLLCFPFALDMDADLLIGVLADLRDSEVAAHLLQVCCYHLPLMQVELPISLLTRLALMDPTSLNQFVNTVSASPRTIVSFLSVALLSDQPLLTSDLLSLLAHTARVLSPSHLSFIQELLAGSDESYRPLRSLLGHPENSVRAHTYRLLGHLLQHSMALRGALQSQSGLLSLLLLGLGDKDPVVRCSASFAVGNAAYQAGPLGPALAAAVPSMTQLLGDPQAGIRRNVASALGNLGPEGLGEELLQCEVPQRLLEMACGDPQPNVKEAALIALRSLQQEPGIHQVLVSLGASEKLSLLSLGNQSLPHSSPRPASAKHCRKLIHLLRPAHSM
TGFBR2, sequence (P37173 whole entry): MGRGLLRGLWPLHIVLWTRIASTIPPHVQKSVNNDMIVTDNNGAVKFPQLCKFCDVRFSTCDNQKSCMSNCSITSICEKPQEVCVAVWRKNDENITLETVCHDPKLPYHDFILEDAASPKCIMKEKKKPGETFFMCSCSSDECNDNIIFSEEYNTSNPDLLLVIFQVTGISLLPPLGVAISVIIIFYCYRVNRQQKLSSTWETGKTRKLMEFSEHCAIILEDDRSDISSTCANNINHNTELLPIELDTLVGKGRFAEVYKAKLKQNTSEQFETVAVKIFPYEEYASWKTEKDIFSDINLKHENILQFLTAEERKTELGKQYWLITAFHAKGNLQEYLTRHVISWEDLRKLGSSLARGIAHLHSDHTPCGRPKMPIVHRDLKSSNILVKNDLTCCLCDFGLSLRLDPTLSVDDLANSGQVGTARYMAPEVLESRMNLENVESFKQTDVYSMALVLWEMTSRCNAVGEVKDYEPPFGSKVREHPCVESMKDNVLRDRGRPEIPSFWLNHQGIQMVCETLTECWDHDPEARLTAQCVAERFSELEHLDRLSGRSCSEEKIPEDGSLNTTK

## COc1ccc(-c2cnccc2-c2cnc(NC(=O)C(C)C)s2)c(C(F)(F)F)c1 [CRT0105446, N-{5-[3-(4-Methoxy-2-trifluoromethyl-phenyl)-pyridin-4-yl]-hiazol-2-yl}-isobutyramide]
SRPK3
  remaining binding at 10 µM: 93%
FYN
  remaining binding at 10 µM: 99%
ANKK1
  remaining binding at 10 µM: 99%
[1]
  remaining binding at 10 µM: 89%
CSF1R
  remaining binding at 10 µM: 51%
OSR1
  remaining binding at 10 µM: 100%
[2]
  remaining binding at 10 µM: 71%
CAMKK2
  remaining binding at 10 µM: 95%
STK36
  remaining binding at 10 µM: 57%
NLK
  remaining binding at 10 µM: 57%
MAST1
  remaining binding at 10 µM: 68%
MERTK
  remaining binding at 10 µM: 69%
CHEK1
  remaining binding at 10 µM: 100%
CLK4
  remaining binding at 10 µM: 100%
TGFBR2
  remaining binding at 10 µM: 94%
DDR1
  remaining binding at 10 µM: 83%
HIPK4
  remaining binding at 10 µM: 75%
PIM1
  remaining binding at 10 µM: 96%
AMPK-alpha1
  remaining binding at 10 µM: 1.1%
RIPK4
  remaining binding at 10 µM: 100%
HPK1
  remaining binding at 10 µM: 100%
RIOK1
  remaining binding at 10 µM: 97%
CLK1
  remaining binding at 10 µM: 85%

## Cc1ccc(-c2cnccc2-c2cnc(Nc3ccc(O)cc3)s2)c(Cl)c1 [CRT0105950, 4-{5-[3-(2-Chloro-4-methyl-phenyl)-pyridin-4-yl]-thiazol-2-ylamino}-phenol]
SRPK3
  remaining binding at 10 µM: 62%
FYN
  remaining binding at 10 µM: 49%
ANKK1
  remaining binding at 10 µM: 69%
[1]
  remaining binding at 10 µM: 50%
CSF1R
  remaining binding at 10 µM: 1.2%
OSR1
  remaining binding at 10 µM: 84%
[2]
  remaining binding at 10 µM: 27%
CAMKK2
  remaining binding at 10 µM: 43%
STK36
  remaining binding at 10 µM: 17%
NLK
  remaining binding at 10 µM: 20%
MAST1
  remaining binding at 10 µM: 84%
MERTK
  remaining binding at 10 µM: 0.45%
CHEK1
  remaining binding at 10 µM: 88%
CLK4
  remaining binding at 10 µM: 1.6%
TGFBR2
  remaining binding at 10 µM: 18%
DDR1
  remaining binding at 10 µM: 0.1%
HIPK4
  remaining binding at 10 µM: 16%
PIM1
  remaining binding at 10 µM: 76%
AMPK-alpha1
  remaining binding at 10 µM: 2.1%
RIPK4
  remaining binding at 10 µM: 99%
HPK1
  remaining binding at 10 µM: 22%
RIOK1
  remaining binding at 10 µM: 65%
CLK1
  remaining binding at 10 µM: 0.4%
